Experimental findings from US20220235065A1 (Epizyme, Inc., priority 2016, published 2022) are described below.

One test deals with T1, EHMT1 (Homo sapiens, UniProt Q9H9B1).
T1 sequence (Q9H9B1 1-1298): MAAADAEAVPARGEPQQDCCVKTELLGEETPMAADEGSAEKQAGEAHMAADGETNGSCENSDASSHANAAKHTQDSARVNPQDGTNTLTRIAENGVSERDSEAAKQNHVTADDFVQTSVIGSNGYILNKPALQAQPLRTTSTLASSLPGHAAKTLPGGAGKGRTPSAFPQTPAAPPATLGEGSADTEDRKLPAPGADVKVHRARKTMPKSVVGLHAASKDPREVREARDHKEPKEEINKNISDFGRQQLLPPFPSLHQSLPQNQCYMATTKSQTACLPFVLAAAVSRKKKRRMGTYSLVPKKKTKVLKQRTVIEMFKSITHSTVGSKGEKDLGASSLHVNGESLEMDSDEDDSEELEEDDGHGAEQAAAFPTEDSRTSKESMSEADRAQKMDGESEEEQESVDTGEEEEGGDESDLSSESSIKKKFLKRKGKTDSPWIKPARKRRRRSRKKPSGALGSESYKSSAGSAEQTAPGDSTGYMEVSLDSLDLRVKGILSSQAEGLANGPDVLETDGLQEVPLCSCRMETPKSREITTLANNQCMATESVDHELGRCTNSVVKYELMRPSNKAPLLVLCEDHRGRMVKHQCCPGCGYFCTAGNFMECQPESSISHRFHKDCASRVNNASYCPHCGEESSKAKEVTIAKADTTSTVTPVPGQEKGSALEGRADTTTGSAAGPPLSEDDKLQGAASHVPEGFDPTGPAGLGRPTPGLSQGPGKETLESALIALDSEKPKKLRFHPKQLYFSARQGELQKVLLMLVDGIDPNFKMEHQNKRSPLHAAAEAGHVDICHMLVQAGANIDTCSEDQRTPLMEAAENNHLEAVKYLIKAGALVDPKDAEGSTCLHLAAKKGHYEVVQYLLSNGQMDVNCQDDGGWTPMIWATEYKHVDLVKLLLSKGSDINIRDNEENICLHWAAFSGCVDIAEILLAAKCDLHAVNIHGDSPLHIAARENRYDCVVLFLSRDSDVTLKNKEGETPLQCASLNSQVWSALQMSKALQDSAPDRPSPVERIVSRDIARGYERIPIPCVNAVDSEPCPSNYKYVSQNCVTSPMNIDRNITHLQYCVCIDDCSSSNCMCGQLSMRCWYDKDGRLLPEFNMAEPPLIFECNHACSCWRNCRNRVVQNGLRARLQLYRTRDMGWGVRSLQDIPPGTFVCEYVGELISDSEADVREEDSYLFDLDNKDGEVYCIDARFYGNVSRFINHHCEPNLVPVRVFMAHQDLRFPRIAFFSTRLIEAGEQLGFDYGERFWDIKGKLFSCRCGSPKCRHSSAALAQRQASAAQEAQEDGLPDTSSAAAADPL
The test can be described thus: EHMT1 PEP (EHMT1 peptide enzyme assay). In kind it is biochemical. The settings on record: peptide substrate enzyme assay.

In test [1] the target is T2, recombinant purified human EHMT2 913-1193 (Homo sapiens, UniProt Q96KQ7).
T2 construct: Recombinant purified human EHMT2 913-1193 (55 μM) synthesized by Viva was used for all experiments; purchased Viva
T2 sequence (Q96KQ7 913-1193): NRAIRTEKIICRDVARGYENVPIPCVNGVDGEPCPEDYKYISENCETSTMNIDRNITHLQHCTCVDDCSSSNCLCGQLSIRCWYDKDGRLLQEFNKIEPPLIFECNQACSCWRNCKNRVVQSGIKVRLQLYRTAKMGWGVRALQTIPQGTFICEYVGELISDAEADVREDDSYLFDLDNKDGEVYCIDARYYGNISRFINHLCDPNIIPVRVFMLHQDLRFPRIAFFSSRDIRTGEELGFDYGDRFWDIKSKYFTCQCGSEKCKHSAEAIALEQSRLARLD
Briefly: EHMT2 enzyme assay on histone peptide substrate (3H-SAM Flashplate). To be noted: read-out: EHMT2 PEP (IC50 μM). The test is classed as biochemical. As to the method: Recombinant purified human EHMT2 913-1193 (55 μM) synthesized by Viva was used for all experiments. Biotinylated histone peptides were synthesized by Biopeptide and HPLC-purified to >95% purity. Streptavidin Flashplates and seals were purchased from PerkinElmer and 384 Well V-bottom Polypropylene Plates were from Greiner. ^3H-labeled S-adenosylmethionine (3H-SAM) was obtained from American Radiolabeled Chemicals with a specific activity of 80 Ci/mmol. Unlabeled SAM and S-adenosylhomocysteine (SAH) were obtained from American Radiolabeled Chemicals and Sigma-Aldrich respectively. Flashplates were washed in a Biotek ELx-405 with 0.1% Tween. 384-well Flashplates and 96-well filter binding plates were read on a TopCount microplate reader (PerkinElmer). Compound serial dilutions were performed on a Freedom EVO (Tecan) and spotted into assay plates using a Thermo Scientific Matrix PlateMate (Thermo Scientific). Reagent cocktails were added by Multidrop Combi (Thermo Scientific).
General Procedure for EHMT2 Enzyme Assay on Histone Peptide Substrate.
10-point curves of test compounds were made on a Freedom EVO (Tecan) using serial 3-fold dilutions in DMSO, beginning at 2.5 mM (final top concentration of compound was 50 μM and the DMSO was 2%). A 1 μL aliquot of the inhibitor dilution series was spotted in a polypropylene 384-well V-bottom plate (Greiner) using a Thermo Scientific Matrix PlateMate (Thermo Scientific). The 100% inhibition control consisted of 1 mM final concentration of the product inhibitor S-adenosylhomocysteine (SAH, Sigma-Aldrich). Compounds were incubated for 30 minutes with 40 μL per well of 0.031 nM EHMT2 (recombinant purified human EHMT2 913-1193, Viva) in 1× assay buffer (20 mM Bicine [pH 7.5], 0.002% Tween 20, 0.005% Bovine Skin Gelatin and 1 mM TCEP). 10 μL per well of substrate mix comprising assay buffer, ^3H-SAM (3H-labeled S-adenosylmethionine, American Radiolabeled Chemicals, specific activity of 80 Ci/mmol), unlabeled SAM (American Radiolabeled Chemicals), and peptide representing histone H3 residues 1-15 containing C-terminal biotin (appended to a C-terminal amide-capped lysine, synthesized by Biopeptide and HPLC-purified to greater than 95% purity) were added to initiate the reaction (both substrates were present in the final reaction mixture at their respective Km values, an assay format referred to as “balanced conditions”). Reactions were incubated for 60 minutes at room temperature and quenched with 10 μL per well of 400 μM unlabeled SAM, then transferred to a 384-well streptavidin Flashplate (PerkinElmer) and washed in a Biotek ELx-405 well washer with 0.1% Tween after 60 minutes. 384-well Flashplates were read on a TopCount microplate reader (PerkinElmer).
IC50 curves were generated using triplicate wells per concentration of compound. The IC50 is the concentration of compound at which measured methylation is inhibited by 50% as interpolated from the dose response curves. IC50 values were calculated using a non-linear regression (variable slope-four parameter fit model) with by the following formula
where Top is fixed at 100% and Bottom is fixed to 0%, [I]=concentration of inhibitor, IC50=half maximal inhibitory concentration and n=Hill Slope.

A word on the IC50: it is the concentration at which inhibition is half-maximal. The compound `CNc1cc(C)nc(Nc2ccc(Cl)c(C(=O)Nc3ncco3)c2)n1` [Compound 249] came in with a concentration for half-maximal inhibition (IC50) against EHMT1 of 0.1 to 1 µM.

For the compound `CNc1cc(C)nc(Nc2ccc(C)c(C(=O)Nc3cc(C#N)ccn3)c2)n1` [Compound 303], the IC50 in test [1] was 1 to 10 µM.

As for `CNCc1cnn(-c2cc(Nc3nc(C)cc(NC)n3)ccc2C#N)c1` [Compound 332], the IC50 (against EHMT1; in test [1]) was below 0.1 µM throughout.

`CNc1cc(C)nc(Nc2ccc(OC)c(-n3cc([C@@H]4CCCN4)cn3)c2)n1` [Compound 333]: the IC50 (against EHMT1; in test [1]) was below 0.1 µM in each case.

Consider `CNc1cc(C)nc(Nc2ccc(OC)c(-n3cc([C@H]4CCCN4)cn3)c2)n1` [Compound 334], for which the 50% inhibitory concentration (IC50) (on EHMT1; in test [1]) was below 0.1 µM each time.
